Target: T1, human glycogen phosphorylase a (Homo sapiens, UniProt P06737)
T1 sequence (P06737 1-847): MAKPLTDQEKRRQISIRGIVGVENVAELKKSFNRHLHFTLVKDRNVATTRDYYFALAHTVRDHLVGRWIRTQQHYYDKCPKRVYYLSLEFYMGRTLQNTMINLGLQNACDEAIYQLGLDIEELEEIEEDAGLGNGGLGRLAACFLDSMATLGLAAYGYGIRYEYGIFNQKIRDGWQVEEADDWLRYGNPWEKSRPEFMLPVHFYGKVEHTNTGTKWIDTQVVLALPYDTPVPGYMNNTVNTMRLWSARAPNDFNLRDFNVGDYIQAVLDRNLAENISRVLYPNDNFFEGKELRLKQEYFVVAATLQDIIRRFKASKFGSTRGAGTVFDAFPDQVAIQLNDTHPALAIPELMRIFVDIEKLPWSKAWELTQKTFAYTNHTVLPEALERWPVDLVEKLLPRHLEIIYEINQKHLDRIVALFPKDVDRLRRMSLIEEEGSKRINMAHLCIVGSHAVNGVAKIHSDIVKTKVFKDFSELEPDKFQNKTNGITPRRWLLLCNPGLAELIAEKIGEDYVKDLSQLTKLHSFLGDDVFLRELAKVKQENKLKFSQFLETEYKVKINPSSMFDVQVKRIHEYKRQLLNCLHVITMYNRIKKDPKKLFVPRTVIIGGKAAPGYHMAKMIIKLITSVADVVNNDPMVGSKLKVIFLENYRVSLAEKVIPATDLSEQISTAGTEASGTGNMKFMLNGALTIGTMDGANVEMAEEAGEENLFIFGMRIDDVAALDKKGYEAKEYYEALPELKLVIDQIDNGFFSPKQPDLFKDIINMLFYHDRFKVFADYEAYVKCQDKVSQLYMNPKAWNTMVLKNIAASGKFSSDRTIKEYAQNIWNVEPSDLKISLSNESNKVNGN
Experiment: Glycogen phosphorylase a activity test
Format: biochemical
Conditions: 10 μM test substance; GPa measured in reverse direction (glycogen synthesis from glucose 1-phosphate)
Protocol: Glycogen Phophorylase a Activity Test
The effect of compounds on the activity of the active form of glycogen phosphorylase (GPa) was measured in the reverse direction by monitoring the synthesis of glycogen from glucose 1-phosphate by determining the release of inorganic phosphate. All reactions were carried out as duplicate determinations in 96-well microtiter plates (half area plates, Costar No. 3696), and the change in absorption as a consequence of the formation of the reaction product was measured at the wavelength specified below in a Multiskan Ascent Elisa Reader (Lab Systems, Finland).
In order to measure the GPa enzyme activity in the reverse direction, the conversion of glucose 1-phosphate to glycogen and inorganic phosphate was measured by the general method of Engers et al. (Engers HD, Shechosky S, Madsen NB, Can J Biochem 1970 July;48(7):746–754) with the following modifications: human glycogen phosphorylase a (for example containing 0.76 mg of protein/ml (Aventis Pharma Deutschland GmbH), dissolved in buffer solution E (25 mM P-glycerophosphate, pH 7.0, 1 mM EDTA and 1 mM dithiotreitol) was diluted to a concentration of 10 μg of protein/ml with buffer T (50 mM Hepes, pH 7.0, 100 mM KCl, 2.5 mM EDTA, 2.5 mM MgCl2.6H2O) and addition of 5 mg/ml of glycogen. Test substances were prepared as a 10 mM solution in DMSO and diluted to 50 μM with buffer solution T. To 10 μl of this solution were added 10 μl of 37.5 mM glucose dissolved in buffer solution T and 5 mg/ml of glycogen, and also 10 μl of a solution of human glycogen phosphorylase a (10 μg of protein/ml) and 20 μl of 2.5 mM glucose 1-phosphate. The base value of the activity of glycogen phosphorylase a in the absence of test substance was determined by adding 10 μl of buffer solution T (0.1% DMSO). The mixture was incubated at room temperature for 40 minutes and the released inorganic phosphate was determined by means of the general method of Drueckes et al. (Drueckes P, Schinzel R, Palm D, Anal Biochem 1995 Sep. 1;230(1):173–177) with the following modifications: 50 μl of a stop solution of 7.3 mM of ammonium molybdate, 10.9 mM of zinc acetate, 3.6% of ascorbic acid, 0.9% of SDS are added to 50 μl of the enzyme mixture. After 60 minutes of incubation at 45° C., the absorption was measured at 820 nm. To determine the background absorption, the stop solution was added immediately after the addition of the glucose 1-phosphate solution in a separate reaction.

inhibition at 10 µM	% Inhibition at 10 μM	Structure (SMILES)
99%		COc1ccc(NC(C)=O)cc1NC(=O)NC(=O)c1cc(F)c(F)cc1Cl [Example 1, N-{3-[3-(2-Chloro-4,5-difluorobenzoyl)ureido]-4-methoxyphenyl}acetamide]
	99%	COC(=O)C(=O)Nc1ccc(OC)c(NC(=O)NC(=O)c2cc(F)c(F)cc2Cl)c1 [Example 2]
	104%	COC(=O)CC(=O)Nc1ccc(OC)c(NC(=O)NC(=O)c2cc(F)c(F)cc2Cl)c1 [Example 3]
	97%	COC(=O)CCC(=O)Nc1ccc(OC)c(NC(=O)NC(=O)c2cc(F)c(F)cc2Cl)c1 [Example 4]
	99%	COc1ccc(NC(=O)C(=O)O)cc1NC(=O)NC(=O)c1cc(F)c(F)cc1Cl [Example 5]
	100%	COc1ccc(NC(=O)CCC(=O)O)cc1NC(=O)NC(=O)c1cc(F)c(F)cc1Cl [Example 7]
	100%	COc1ccc(NC(=O)CCC(N)=O)cc1NC(=O)NC(=O)c1cc(F)c(F)cc1Cl [Example 8]
	95%	COC(=O)CC(=O)Nc1cc(NC(=O)NC(=O)c2cc(F)c(F)cc2Cl)c(C)cc1OC [Example 10]
	96%	COc1cc(C)c(NC(=O)NC(=O)c2cc(F)c(F)cc2Cl)cc1NC(=O)CC(=O)O [Example 11]
	90%	COc1cc(C)c(NC(=O)NC(=O)c2cc(F)c(F)cc2Cl)cc1NC(=O)CCC(=O)O [Example 12]
	94%	COc1cc(C)c(NC(=O)NC(=O)c2cc(F)c(F)cc2Cl)cc1NC(=O)C(=O)O [Example 13]
	91%	COc1cc(C)c(NC(C)=O)cc1NC(=O)NC(=O)c1cc(F)c(F)cc1Cl [Example 14]
	101%	COC(=O)C(=O)Nc1cc(NC(=O)NC(=O)c2cc(F)c(F)cc2Cl)c(OC)cc1C [Example 15]
	95%	COC(=O)CC(=O)Nc1cc(NC(=O)NC(=O)c2cc(F)c(F)cc2Cl)c(OC)cc1C [Example 16]
	100%	COc1cc(C)c(NC(=O)C(=O)O)cc1NC(=O)NC(=O)c1cc(F)c(F)cc1Cl [Example 17]
	99%	COc1cc(C)c(NC(=O)CC(=O)O)cc1NC(=O)NC(=O)c1cc(F)c(F)cc1Cl [Example 18]
	97%	COc1cc(C(=O)O)c(NC(C)=O)cc1NC(=O)NC(=O)c1cc(F)c(F)cc1Cl [Example 19]
	95%	CCOC(=O)c1cc(OC)c(NC(=O)NC(=O)c2cc(F)c(F)cc2Cl)cc1NC(C)=O [Example 20]
	96%	COc1cc(C(=O)O)c(NC(=O)CC(=O)O)cc1NC(=O)NC(=O)c1cc(F)c(F)cc1Cl [Example 22]
	95%	COc1cc(C(=O)O)c(NC(=O)C(=O)O)cc1NC(=O)NC(=O)c1cc(F)c(F)cc1Cl [Example 25]
	97%	COc1cc(C(=O)O)c(NC(=O)CCC(=O)O)cc1NC(=O)NC(=O)c1cc(F)c(F)cc1Cl [Example 26]
	98%	COCC(=O)Nc1ccc(OC)c(NC(=O)NC(=O)c2cc(F)c(F)cc2Cl)c1 [Example 27]
	89%	COc1ccc(NC(=O)c2cccnc2)cc1NC(=O)NC(=O)c1cc(F)c(F)cc1Cl [Example 28]
	98%	COc1ccc(NC(=O)c2cccs2)cc1NC(=O)NC(=O)c1cc(F)c(F)cc1Cl [Example 29]
	101%	CCC(=O)Nc1ccc(OC)c(NC(=O)NC(=O)c2cc(F)c(F)cc2Cl)c1 [Example 30]
	98%	COc1ccc(NC(=O)C2CC2)cc1NC(=O)NC(=O)c1cc(F)c(F)cc1Cl [Example 31]
	102%	COc1ccc(NC(=O)c2ccco2)cc1NC(=O)NC(=O)c1cc(F)c(F)cc1Cl [Example 32]
	96%	COc1ccc(NC(=O)C2CCCC2)cc1NC(=O)NC(=O)c1cc(F)c(F)cc1Cl [Example 33]

Structure (SMILES)	inhibition at 10 µM	% Inhibition at 10 μM
COc1ccc(NC(=O)CC(=O)O)cc1NC(=O)NC(=O)c1cc(F)c(F)cc1Cl [Example 6]		100%
